The source of these data is paper PMC2747590 (Chemical biology & drug design, 2009).

Each structure is given as a SMILES string. Read-outs that look alike come from different tables or passages of the source.

The conditions of series [1]: mice, single intraperitoneal dose at the same dose level (100 mg/kg); cited from earlier work.
For a further series, the system named is metastasis. As to conditions: 50 mg/kg/day; cited from earlier work.
Another series in a line: in vitro. To be noted: male, Sprague-Dawley, rat, microsomes, pH 7.4.
A short description of the next series: in vivo. To be noted: female, BALB/c, mouse, ip.
The nature of series [2]: 14-day repeated dose toxicity study in mice. To be noted: 5, 10 and 25 mg/kg/day i.p. for 14 days; normal behavior and food consumption.
For series [3] the following is noted: mouse, in vivo, ip.
The nature of series [4]: Plasma levels in mice after single intraperitoneal dose. As to conditions: female, BALB/c, mouse, in vivo, ip, 100 mg/kg.
Another series concerns gelatinases. As to conditions: cited from earlier work.

By amount remaining is commonly meant what is left of the initial amount, in per cent. High values mean less turnover, low ones more turnover.

With `O=S(=O)(CC1CS1)c1ccc(Oc2ccccc2)cc1` (stereo not drawn) [Compound 1, (4-phenoxyphenylsulfonyl)methylthiirane], in series [1], the “plasma levels at 1 h” value was < 1 µM. Moreover, the “efficacy in mouse models of metastasis” value in the series with metastasis was “has shown efficacy”. This compound displayed a fraction remaining at 0.25 h, 25 μM in the series “in vitro” of 0.5%.
On to `CS(=O)(=O)Oc1ccc(Oc2ccc(S(=O)(=O)CC3CS3)cc2)cc1` (stereo not drawn) [Compound 2, 4-(4-(Thiiranylmethylsulfonyl)phenoxy)-phenyl methanesulfonate], for which the concentration at 1 h in the series “in vivo” (5 mg/kg/day) was < 1 µM; in “in vivo” (10 mg/kg/day), < 1 µM; in “in vivo” (25 mg/kg/day), 3.2 µM; in series [4], 70.5 µM. The “toxicity upon multiple-dose administration” value in series [2] is recorded as “No toxicity was observed”. In addition, the “Concentration of 2 at 1 h” value in series [3] (female, BALB/c, 25 mg/kg/day, 1 h) is 3.2 µM; in series [3] (5 mg/kg/day) it was “LOQ”; in series [3] (10 mg/kg/day) it was “LOQ”.
For the compound `O=S(=O)(CC1CS1)c1ccc(Oc2ccc(O)cc2)cc1` (stereo not drawn) [p-hydroxy variant], the “gelatinase inhibitory activity relative to parent 1” value in the series on gelatinases was “more active gelatinase inhibitor than the parent 1”.
